{"source": "paper PMC11225352", "about": "“A multicenter, randomized, double-blind, placebo-controlled ascending dose study to evaluate the safety, tolerability, pharmacokinetics (PK) and pharmacodynamic (PD) effects of Posiphen in subjects with early Alzheimer’s Disease” (Alzheimer's Research & Therapy, 2024)", "key": {"[1]": {"test": "Plasma pharmacokinetics of Posiphen and its N1 and N8 metabolites (LC-MS, non-compartmental)", "assay_type": "in vivo, human", "settings": "for Tmax: median (min-max); for AUC(0-t) / Cmax: 60 mg; for AUC(0-t): read-out: AUC0 − 24; for Cmax: read-out: Cmax; for mean levels averaged over 24 h of CSF sampling: after 21–23 days, early AD", "excerpt": "(§1) For the confinement visit, subjects arrived in the early morning after an overnight fast. Physical and neurological examination, vital signs, and assessment of compliance were completed and blood was drawn for safety laboratory tests. An intravenous line and a second line for repeated blood draw were placed. To sample CSF, the intrathecal space was accessed using a Perifix 18G Touhy Epidural Needle (90 mm), and a Polyamide Epidural Catheter (20G Closed Tip) was inserted and fixed in place by an Anesthesiologist. Participants received the last day’s dosing of study drug or placebo. Initial blood and CSF samples were drawn, intravenous infusion of ^13C6-leucine was started and continued for 9 h, during which time subjects received a low leucine diet. Blood and CSF were sampled every 2 h for 36 h. After 36 h, intravenous lines and the CSF catheter were removed, vital signs were measured, physical exam performed, and blood and CSF were sent for routine laboratory studies. […] If postural headache was present, a blood patch was performed. Once stable, participants underwent a brief exam and vital sign check and were discharged. They received a phone call 24 h after discharge to check on their wellbeing.\n(§2) For biochemical analysis to derive data for SILK, ^13C6-leucine was analyzed in plasma and CSF by mass spectrometry, and Aβ peptides in CSF were analyzed by immunoprecipitation-mass spectrometry (IP-MS) as previously described, by C2N Diagnostics (St Louis, MO). CSF levels of sAPPα, sAPPβ, Aβ38, 40 and 42 were analyzed by the ADCS Biomarker Core using Mesoscale Discovery (MSD) electrochemiluminescent assays (Mesoscale Discovery, Rockville, MD). Levels of Posiphen and its N1 and N8 metabolites in plasma and CSF were measured by Charles River Laboratories (Montreal, CA) by high-performance liquid chromatographic mass spectrometry, with use of deuterated Posiphen (procured by Charles River Laboratories) as an internal standard.\n(§3) A prespecified Statistical Analysis Plan (SAP) was prepared and finalized before the database lock occurred. For safety and tolerability, frequencies of adverse events, serious adverse events and laboratory abnormalities between the participants across the three groups are compared, using Pearson’s χ [2] or ANOVA, as appropriate. Plasma concentration-time data are analyzed by non-compartmental methods using WinNonlin version 6.2.1 or greater. Calculations are based on the actual sampling times recorded during the study. For PK analysis, only the subjects receiving Posiphen are included.\n(§4) Noncompartmental pharmacokinetic parameters were estimated using Phoenix WinNonlin v8.3 (Certara, Princeton, NJ). Levels and parameters (Cmax, AUC) of posiphen, n-1 and n-8 metabolites were highly correlated in plasma and CSF. For the BID and TID doses the expected post dose plasma peaks appeared attenuated."}, "[2]": {"test": "CSF pharmacokinetics of Posiphen and its N1 and N8 metabolites (lumbar catheter sampling, LC-MS)", "assay_type": "in vivo, human", "settings": "for mean levels averaged over 24 h of CSF sampling: after 21–23 days, early AD; for Tmax: median (min-max); for AUC(0-t) / Cmax: 60 mg; for AUC(0-t): read-out: AUC0 − 24; for Cmax: read-out: Cmax", "excerpt": "as §1, §2, §3, §4"}, "Aβ42 [3]": {"system": "Aβ42", "test": "SILK analysis of CSF Aβ42 (fractional synthesis rate)", "assay_type": "in vivo, human", "settings": "after 21 days", "method": "as §2\nFor SILK, the fraction of labeled Aβ for Aβ38, 40, and 42 during 36 h after administration of study drug for each subject was calculated, as described. The FSR measures were calculated by fitting a line to the upslope of the CSF Aβ labeling data. It was assumed that the upslope occurred between hours 6–16 h after the start of confinement. […] The percentage of newly synthesized and degraded Aβ was estimated over 36 h by multiplying the […] concentration of Aβ measured at the start of confinement (i.e. at catheter placement; time = 0) by the percentage of Aβ that contains ^13C6-leucine at each time point. […]"}, "Aβ42 [4]": {"system": "Aβ42", "test": "CSF Aβ42 level, screening to day 21 (MSD immunoassay)", "assay_type": "in vivo, human", "settings": "ANOVA with age and sex as covariates; p = 0.33", "method": "as §2\n(§5) Changes in CSF biomarkers from the screening to confinement (sample at time of placement of catheter) were compared in the treatment and placebo groups by ANOVA, with models that included age, sex and baseline MMSE, and further analysis stratified by treatment dose. A similar approach was taken to analyze changes in MMSE, ADAS-cog and NPI. Data were analyzed using R (version 4.2.2)."}, "sAPPα": {"system": "sAPPα", "test": "CSF sAPPα level, screening to day 21 (MSD immunoassay)", "assay_type": "in vivo, human", "settings": "ANOVA with age and sex as covariates; p = 0.38", "method": "as §2, §5"}, "sAPPβ": {"system": "sAPPβ", "test": "CSF sAPPβ level, screening to day 21 (MSD immunoassay)", "assay_type": "in vivo, human", "settings": "ANOVA with age and sex as covariates; p = 0.16", "method": "as §2, §5"}, "Total tau": {"system": "Total tau", "test": "CSF total tau level, screening to day 21", "assay_type": "in vivo, human", "method": "as §5"}, "[5]": {"test": "Safety and tolerability (adverse events, vital signs, EKG, laboratory tests)", "assay_type": "in vivo, human", "method": "Safety measures included adverse events, vital signs, EKG and laboratory tests. The Mini-Mental State Examination (MMSE), Alzheimer’s Disease Assessment Scale-cognitive (ADAS-cog12) and Neuropsychiatric Inventory (NPI) were used as cognitive and behavioral outcomes,.\nas §3"}, "[6]": {"set-up": "method as in PMID 22791904", "settings": "cited from earlier work"}, "[7]": {"system": "sAPPα, sAPPβ and total tau", "set-up": "method as in PMID 22791904", "settings": "four MCI subjects, 60 mg four times per day for 10 days; cited from earlier work"}, "cholinesterase": {"system": "cholinesterase", "set-up": "method as in PMID 11404470", "settings": "cited from earlier work"}, "[8]": {"settings": "human, plasma, oral, plasma, 60 mg BID (n = 5), geometric mean (% geometric CV)"}, "[9]": {"settings": "human, plasma, oral, plasma, 60 mg TID (n = 1)"}, "[10]": {"settings": "human, plasma, oral, plasma, 60 mg daily (n = 4), geometric mean (% geometric CV)"}, "[11]": {"settings": "plasma, 60 mg daily (n = 4), geometric mean (% geometric CV)"}, "[12]": {"settings": "human, oral, 60 mg BID (n = 5), geometric mean (% geometric CV)"}, "[13]": {"settings": "human, oral, 60 mg daily (n = 4; N1: only one participant measurable), geometric mean (% geometric CV)"}}}
{"smiles": "CN1CC[C@]2(C)c3cc(OC(=O)Nc4ccccc4)ccc3N(C)[C@H]12", "note": "[Posiphen]", "values": [{"measurement": "plasma exposure with more frequent dosing", "setting": "[1]; 60 mg once, twice, three times daily", "result": "did not increase proportionally"}, {"measurement": "half-life", "setting": "[1]; human, oral, plasma, 60 mg daily (n = 4), geometric mean (% geometric CV)", "result": 3.55, "unit": "h"}, {"measurement": "Tmax", "setting": "[1]; human, oral, plasma, 60 mg daily (n = 4), read-out: Tmax", "result": 2, "unit": "h"}, {"measurement": "AUC(0-t)", "setting": "[1]; [8]", "result": 196, "unit": "ng·h/mL"}, {"measurement": "Cmax", "setting": "[1]; [8]", "result": 30.4, "unit": "ng/mL"}, {"measurement": "AUC(0-t)", "setting": "[1]; [9]", "result": 288, "unit": "ng·h/mL"}, {"measurement": "Cmax", "setting": "[1]; [9]", "result": 51.8, "unit": "ng/mL"}, {"measurement": "AUC(0-t)", "setting": "[1]; [10]", "result": 212, "unit": "ng·h/mL"}, {"measurement": "Cmax", "setting": "[1]; [10]", "result": 52.7, "unit": "ng/mL"}, {"measurement": "mean levels averaged over 24 h of CSF sampling", "setting": "[1]; plasma, 60 mg BID (n = 5)", "result": "9.51 ± 5.77", "unit": "ng/mL"}, {"measurement": "Tmax", "setting": "[1]; plasma, 60 mg BID (n = 5)", "result": "2 (2–12) hr"}, {"measurement": "mean levels averaged over 24 h of CSF sampling", "setting": "[1]; plasma, 60 mg TID (n = 1)", "result": 12.01, "unit": "ng/mL"}, {"measurement": "Cl/F", "setting": "[1]; [11]", "result": "274.04 (17.50) L/hr"}, {"measurement": "V/F", "setting": "[1]; [11]", "result": "1403.1 (59.23) L"}, {"measurement": "mean levels averaged over 24 h of CSF sampling", "setting": "[1]; plasma, 60 mg once daily (n = 5)", "result": "7.16 ± 4.25", "unit": "ng/mL"}, {"measurement": "mean levels averaged over 24 h of CSF sampling", "setting": "[2]; 60 mg (n = 5)", "result": "0.46 ± 0.30", "unit": "ng/mL"}, {"measurement": "mean levels averaged over 24 h of CSF sampling", "setting": "[2]; 60 mg BID (n = 5)", "result": "0.73 ± 0.53", "unit": "ng/mL"}, {"measurement": "Tmax", "setting": "[2]; 60 mg BID (n = 5)", "result": "2 (2–20) hr"}, {"measurement": "mean levels averaged over 24 h of CSF sampling", "setting": "[2]; 60 mg TID (n = 1)", "result": 0.71, "unit": "ng/mL"}, {"measurement": "Tmax", "setting": "[2]; human, oral, 60 mg daily (n = 4; N1: only one participant measurable), read-out: Tmax", "result": 2, "unit": "h"}, {"measurement": "AUC(0-t)", "setting": "[2]; [12]", "result": 17.9, "unit": "ng·h/mL"}, {"measurement": "Cmax", "setting": "[2]; [12]", "result": 2.21, "unit": "ng/mL"}, {"measurement": "AUC(0-t)", "setting": "[2]; human, oral, 60 mg TID (n = 1)", "result": 25, "unit": "ng·h/mL"}, {"measurement": "Cmax", "setting": "[2]; human, oral, 60 mg TID (n = 1)", "result": 2.44, "unit": "ng/mL"}, {"measurement": "AUC(0-t)", "setting": "[2]; [13]", "result": 12.3, "unit": "ng·h/mL"}, {"measurement": "Cmax", "setting": "[2]; [13]", "result": 2.85, "unit": "ng/mL"}, {"measurement": "effect on FSR estimates for Aβ42 vs. placebo", "setting": "Aβ42 [3]", "result": "no significant effect"}, {"measurement": "CSF Aβ42, Treatment difference (Posiphen – placebo)", "setting": "Aβ42 [4]", "result": "-0.104 (0.102) p = 0.33 pg/mL"}, {"measurement": "CSF sAPPα, Treatment difference (Posiphen – placebo)", "setting": "sAPPα", "result": "9.99 (10.8) p = 0.38 pg/mL"}, {"measurement": "CSF sAPPβ, Treatment difference (Posiphen – placebo)", "setting": "sAPPβ", "result": "47.9 (31.6) p = 0.16 pg/mL"}, {"measurement": "CSF Total tau, Treatment difference (Posiphen – placebo)", "setting": "Total tau; ANOVA with age and sex as covariates, p = 0.39", "result": "133 (149) p = 0.39 pg/mL"}, {"measurement": "CSF Total tau, Day 21", "setting": "Total tau; Posiphen arm, all doses (n = 10), screening 751 ± 404 (n = 11)", "result": "849 ± 369 (n = 10) pg/mL"}, {"measurement": "CSF Total tau, LS mean change", "setting": "Total tau; screening to day 21, SEM 79.1, placebo 53.7", "result": 186.4, "unit": "pg/mL"}, {"measurement": "ECG parameters", "setting": "[5]; Posiphen vs placebo groups", "result": "no significant changes or differences"}, {"measurement": "laboratory safety parameters", "setting": "[5]; Posiphen vs placebo groups", "result": "no clinically significant changes"}, {"measurement": "safety and tolerability", "setting": "[5]; early AD, 60 mg once, twice or three times per day for 21–23 days, 11 received Posiphen, 7 placebo", "result": "safe and was generally well tolerated"}, {"measurement": "adverse events (AEs), frequency vs placebo", "setting": "[5]; early AD, 21–23 days", "result": "did not differ in frequency between the groups"}, {"measurement": "vital signs", "setting": "[5]; early AD, 21–23 days", "result": "no significant changes"}, {"measurement": "safety and tolerability, multiple dose studies", "setting": "[6]; 20, 40 or 60 mg given four times per day", "result": "safe and well-tolerated"}, {"measurement": "gastro-intestinal side effects", "setting": "[6]; Single Ascending Dose study, daily dose of 160 mg or higher", "result": "high rate of gastro-intestinal side effects"}, {"measurement": "plasma half-life", "setting": "[6]; oral, up to four times per day", "result": "short"}, {"measurement": "mean CSF sAPPα, sAPPβ and total tau at 10 days compared to pretreatment", "setting": "[7]", "result": "decreased"}, {"measurement": "anticholinesterase activity", "setting": "cholinesterase", "result": "does not"}]}
